Patent publication US20250312303A1, “ANTICANCER AGENT” (AGC Inc., priority 2022, published 2025)
Values joined by “and” are separate entries in the source; they are usually repeats but may differ in a detail not shown here. Identical values can stand only once.

Legend:
[1] = system: HeLa cells; test: Tumor volume of subcutaneously transplanted HeLa cells in SCID/SCID mice; format: in vivo
Experimental: First, 0.1 mL samples of an HeLa cell solution with a concentration of 1.0×10^7 cells/mL were transplanted beneath the skin of SCID/SCID (immunodeficient) mice. Starting 7 days after the HeLa cell transplantation, PBS (control group), leucine (5 mg/kg mouse bodyweight) or trifluoroleucine (5 mg/kg mouse bodyweight) was administered intraperitoneally every day for two weeks. The growth of the tumor tissue was observed over time from the time of HeLa transplantation, and the tumor volume (mm^3) was calculated. The tumor volume (mm^3) was calculated from the major diameter (mm) of the tumor tissue and the minor diameter (mm) of the tumor tissue using the formula shown below.
With the exceptions of using monofluoroisoleucine or 5-fluoro-5-methyl-norleucine (CAS RN: 1361228-49-0) instead of the trifluoroleucine, and starting the administration of the PBS, 5-fluoro-5-methyl-norleucine or monofluoroisoleucine 11 days after rather than 7 days after the HeLa cell transplantation, the same procedure as (1) above was used to measure the volume (mm^3) of the tumor formed by the subcutaneously transplanted HeLa cells over time.
(§1) First, 0.1 mL samples of an HeLa cell solution with a concentration of 1.0×10^7 cells/mL were transplanted beneath the skin of SCID/SCID (immunodeficient) mice. Starting 7 days after the HeLa cell transplantation, PBS (control group), glutamine (Gln) (5 mg/kg mouse bodyweight), (2S,4S)Gln(1F) (5 mg/kg mouse bodyweight) or (2S,4R)Gln(1F) (5 mg/kg mouse bodyweight) was administered intraperitoneally every day for two weeks. The growth of the tumor tissue was observed over time from the time of HeLa cell transplantation, and the tumor volume (mm^3) was calculated. The tumor volume (mm^3) was determined in the same manner as that described in Example 2.
as §1, with “mouse bodyweight), or di-F-Gln(F)” for “mouse bodyweight), (2S,4S)Gln(1F) (5 mg/kg mouse bodyweight) or (2S,4R)Gln(1F)”, “bodyweight), or di-F-Gln(F) (5 mg/kg” for “bodyweight) or (2S,4R)Gln(1F) (5 mg/kg”, “of HeLa transplantation, and” for “of HeLa cell transplantation, and”

[2] = system: NHDF cells; test: SRB assay, relative cell proliferation rate of NHDF cells (control non-cancer cells); format: cell-based
From the text: (§2) HeLa cells and PANC-1 cells were used as the cancer cells. Both these cells were obtained from ATCC. Further, NHDF cells obtained from Lonza Group Ltd. were used as control non-cancer cells. The culture mediums used were Dulbecco's Modified Eagle Medium (D-MEM, manufactured by FUJIFILM Wako Pure Chemical Corporation) to which 10% FBS had been added (hereinafter also referred to as the “normal medium”), a medium prepared by removing leucine from D-MEM and adding 10% FBS (hereinafter also referred to as the “Leu-removed medium”), and a medium prepared by removing valine from D-MEM and adding 10% FBS (hereinafter also referred to as the “Val-removed medium”).
(§3) The culture cells were inoculated into a 96-well culture plate at a concentration of 3×10^3 cells/well, and following adhesion, were cultured for 24, 48 or 72 hours in the normal medium, the Leu-removed medium or Val-removed medium, or a medium prepared by adding the fluorine-containing amino acid to the Leu-removed medium or Val-removed medium in an amount sufficient to achieve a final concentration of 0.8 mM. Following culturing, the cell proliferation rate was measured by SRB assay. As a control, the cell proliferation rate was measured in a similar manner for cells having a culture time of 0 hours.
(§4) The SRB assays were conducted in the following manner. Following cell culturing, the medium was removed, and 10% (wt/vol) of trichloroacetic acid was added to fix the cells. Subsequently, the fixed cells were washed three times with tap water, and then stained by adding a solution containing 0.4% (wt/vol) of sulforhodamine B dissolved in 1% acetic acid. Following subsequent washing three times with a 1% acetic acid solution, a 10 mM Tris solution was added, and the light absorbance at 540 nm was measured. The 540 nm absorbance value for each sample was used to indicate the cell quantity, and for each sample, the relative cell proliferation rate (%) at a culture time of X hours was determined using the formula below.
(§5) SRB assays were conducted in the same manner as Example 1 with the exceptions of using a medium prepared by removing glutamine from D-MEM and adding 10% FBS (hereinafter also referred to as the “Gln-removed medium”) as the culture medium instead of the Leu-removed medium, using monofluoroglutamine ((2S,4S)Gln(1F) or (2S,4R)Gln(1F)) as the fluorine-containing amino acid, and altering the amount of monofluoroglutamine added to the Gln-removed medium to an amount sufficient to achieve a final concentration of 4 mM.

[3] = system: HeLa cells; test: SRB assay, relative cell proliferation rate of HeLa cells; format: cell-based
From the text: as §2, §3, §4, §5
(§6) SRB assays were conducted in the same manner as Example 1 with the exceptions of using the Gln-removed medium as the culture medium instead of the Leu-removed medium, using difluoroglutamine as the fluorine-containing amino acid, and altering the amount of difluoroglutamine added to the Gln-removed medium to an amount sufficient to achieve a final concentration of 4 mM.

[4] = system: PANC-1 cells; test: SRB assay, relative cell proliferation rate of PANC-1 cells; format: cell-based
From the text: as §2, §3, §4, §5, §6

[5] = 5 mg/kg intraperitoneally every day for two weeks starting day 7, 7 days since HeLa cell transplantation
[6] = 5 mg/kg intraperitoneally every day for two weeks starting day 7, 14 days since HeLa cell transplantation
[7] = 5 mg/kg intraperitoneally every day for two weeks starting day 7, 21 days since HeLa cell transplantation
[8] = Val-removed medium + 0.8 mM amino acid, culture time 24 h
[9] = Val-removed medium + 0.8 mM amino acid, culture time 48 h
[10] = Val-removed medium + 0.8 mM amino acid, culture time 72 h
[11] = Leu-removed medium + 0.8 mM amino acid, culture time 24 h
[12] = Leu-removed medium + 0.8 mM amino acid, culture time 48 h
[13] = Leu-removed medium + 0.8 mM amino acid, culture time 72 h, hydrochloride
[14] = Val-removed medium + 0.8 mM amino acid, culture time 72 h, listed as monofluorovaline
[15] = Val-removed medium + 0.8 mM amino acid, culture time 72 h, listed as hexafluorovaline
[16] = Leu-removed medium + 0.8 mM amino acid, culture time 72 h

CC(C)C[C@H](N)C(=O)O [Leu, leucine, reference compound]
Tumor volume [1, 5]: 77.4 mm^3
Tumor volume ([1]; 5 mg/kg intraperitoneally every day for two weeks starting day 7, 10 days since HeLa cell transplantation): 190.1 mm^3
Tumor volume ([1]; 5 mg/kg intraperitoneally every day for two weeks starting day 7, 12 days since HeLa cell transplantation): 355.3 mm^3
Tumor volume [1, 6]: 385.1 mm^3
Tumor volume ([1]; 5 mg/kg intraperitoneally every day for two weeks starting day 7, 17 days since HeLa cell transplantation): 714.2 mm^3
Tumor volume ([1]; 5 mg/kg intraperitoneally every day for two weeks starting day 7, 19 days since HeLa cell transplantation): 1094.6 mm^3
Tumor volume [1, 7]: 1536.5 mm^3

CC(C(N)C(=O)O)C(F)(F)F (stereo not drawn) [Val(3F), 2-amino-3-methyl-4,4,4-trifluorobutanoic acid]
Relative cell proliferation rate of NHDF cells [2, 8]: 83.0%
Relative cell proliferation rate of NHDF cells [2, 9]: 104.6%
Relative cell proliferation rate of NHDF cells [2, 10]: 116.6%
Relative cell proliferation rate of HeLa cells [3, 8]: 151.7%
Relative cell proliferation rate of HeLa cells [3, 9]: 287.6%
Relative cell proliferation rate of HeLa cells [3, 10]: 494.3%
Relative cell proliferation rate of PANC-1 cells [4, 8]: 108.9%
Relative cell proliferation rate of PANC-1 cells [4, 9]: 161.2%
Relative cell proliferation rate of PANC-1 cells [4, 10]: 253.7%

Cl.NC(CC(C(F)(F)F)C(F)(F)F)C(=O)O (stereo not drawn) [Leu(6F), 2-amino-5,5,5-trifluoro-4-(trifluoromethyl) pentanoic acid hydrochloride]
Relative cell proliferation rate of NHDF cells [2, 11]: 104.7%
Relative cell proliferation rate of NHDF cells [2, 12]: 130.1%
Relative cell proliferation rate of NHDF cells [2, 13]: 179.1%
Relative cell proliferation rate of HeLa cells [3, 11]: 137.3%
Relative cell proliferation rate of HeLa cells [3, 12]: 264.0%
Relative cell proliferation rate of HeLa cells [3, 13]: 472.5%
Relative cell proliferation rate of PANC-1 cells [4, 11]: 75.5%
Relative cell proliferation rate of PANC-1 cells [4, 12]: 96.5%
Relative cell proliferation rate of PANC-1 cells [4, 13]: 193.6%
Relative cell proliferation rate of PANC-1 cells ([4]; Leu-removed medium + 0.8 mM amino acid, culture time 72 h, listed as hexafluoroleucine, hydrochloride): ~200%

NC(=O)CC[C@H](N)C(=O)O [Gln, glutamine, reference compound]
Tumor volume [1, 5]: 76.0 mm^3 and 97.3 mm^3
Tumor volume ([1]; 5 mg/kg intraperitoneally every day for two weeks starting day 7, 9 days since HeLa cell transplantation): 134.7 mm^3 and 259.1 mm^3
Tumor volume ([1]; 5 mg/kg intraperitoneally every day for two weeks starting day 7, 11 days since HeLa cell transplantation): 215.4 mm^3 and 341.0 mm^3
Tumor volume [1, 6]: 488.0 mm^3 and 721.9 mm^3
Tumor volume ([1]; 5 mg/kg intraperitoneally every day for two weeks starting day 7, 16 days since HeLa cell transplantation): 734.1 mm^3 and 1094.6 mm^3
Tumor volume ([1]; 5 mg/kg intraperitoneally every day for two weeks starting day 7, 18 days since HeLa cell transplantation): 939.6 mm^3 and 1348.3 mm^3
Tumor volume [1, 7]: 1256.0 mm^3 and 1849.5 mm^3
Increase in the size of the tumor tissue compared with the control group ([1]; HeLa tumor-bearing SCID/SCID mice, 5 mg/kg intraperitoneally every day for two weeks, result in words): even larger than the control group

CC(C)(F)C(N)C(=O)O (racemic) [Val(1F), 3-fluoro-DL-valine]
Relative cell proliferation rate of NHDF cells [2, 8]: 91.5%
Relative cell proliferation rate of NHDF cells [2, 9]: 70.4%
Relative cell proliferation rate of NHDF cells [2, 10]: 110.5%
Relative cell proliferation rate of NHDF cells [2, 14]: lower than the relative cell proliferation rate observed for the Val-removed medium
Relative cell proliferation rate of HeLa cells [3, 8]: 72.83%
Relative cell proliferation rate of HeLa cells [3, 9]: 118.0%
Relative cell proliferation rate of HeLa cells [3, 10]: 273.6%
Relative cell proliferation rate of PANC-1 cells [4, 8]: 88.8%
Relative cell proliferation rate of PANC-1 cells [4, 9]: 103.8%
Relative cell proliferation rate of PANC-1 cells [4, 10]: 105.1%
Relative cell proliferation rate of PANC-1 cells [4, 14]: about 100%

NC(C(=O)O)C(C(F)(F)F)C(F)(F)F (racemic) [Val(6F), 4,4,4,4′,4′,4′-hexafluoro-DL-valine]
Relative cell proliferation rate of NHDF cells [2, 8]: 109.8%
Relative cell proliferation rate of NHDF cells [2, 9]: 104.4%
Relative cell proliferation rate of NHDF cells [2, 10]: 125.2%
Relative cell proliferation rate of NHDF cells [2, 15]: lower than the relative cell proliferation rate observed for the Val-removed medium
Relative cell proliferation rate of HeLa cells [3, 8]: 88.1%
Relative cell proliferation rate of HeLa cells [3, 9]: 93.7%
Relative cell proliferation rate of HeLa cells [3, 10]: 67.6%
Relative cell proliferation rate of HeLa cells [3, 15]: less than 100%
Relative cell proliferation rate of PANC-1 cells [4, 8]: 104.3%
Relative cell proliferation rate of PANC-1 cells [4, 9]: 133.4%
Relative cell proliferation rate of PANC-1 cells [4, 10]: 141.3%

CC(C)(F)CC[C@H](N)C(=O)O [5F-NorLeu, 5-fluoro-5-methyl-norleucine]
Tumor volume ([1]; administration intraperitoneally every day starting day 11, 11 days since HeLa cell transplantation): 230.6 mm^3
Tumor volume ([1]; administration intraperitoneally every day starting day 11, 13 days since HeLa cell transplantation): 373.9 mm^3
Tumor volume ([1]; administration intraperitoneally every day starting day 11, 15 days since HeLa cell transplantation): 684.9 mm^3
Tumor volume ([1]; administration intraperitoneally every day starting day 11, 18 days since HeLa cell transplantation): 823.5 mm^3
Tumor volume ([1]; administration intraperitoneally every day starting day 11, 20 days since HeLa cell transplantation): 1291.7 mm^3
Tumor volume ([1]; administration intraperitoneally every day starting day 11, 22 days since HeLa cell transplantation): 1951.5 mm^3

CC(C)(F)C[C@H](N)C(=O)O [Leu(1F), 4-fluoro-L-leucine]
Relative cell proliferation rate of NHDF cells [2, 11]: 92.0%
Relative cell proliferation rate of NHDF cells [2, 12]: 66.4%
Relative cell proliferation rate of NHDF cells [2, 16]: 87.7%
Relative cell proliferation rate of NHDF cells ([2]; Leu-removed medium + 0.8 mM amino acid, culture time 72 h, listed as monofluoroleucine): less than 100%
Relative cell proliferation rate of HeLa cells [3, 11]: 82.3%
Relative cell proliferation rate of HeLa cells [3, 12]: 90.6%
Relative cell proliferation rate of HeLa cells [3, 16]: 82.0%
Relative cell proliferation rate of PANC-1 cells [4, 11]: 67.6%
Relative cell proliferation rate of PANC-1 cells [4, 12]: 47.9%
Relative cell proliferation rate of PANC-1 cells [4, 16]: 40.9%
